Laboratory results published in PubChem BioAssay (NCI).
Values joined by “and” are separate entries in the source; they are usually repeats but may differ in a detail not shown here. Identical values can stand only once.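 48-hour exposure; five concentrations; linearly interpolated endpoints. Abbreviation: GI50, concentration required for 50% inhibition of growth. The concentration for full growth arrest is given as TGI.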 Where a SMILES comes first, the peptide text is derived from it. [ ]: non-standard residue; d: D form. The star is where a group is joined. ξ: configuration not given here. ξPhe(4-NO2) = NC(Cc1ccc([N+](=O)[O-])cc1)C(=O)O; Boc = CC(C)(C)OC(=O)*

Columns and labels:
Test in all cases: NCI tumour cell line growth inhibition, 48 h
BT-549 breast = tested on: BT-549 breast
CAKI-1 renal = tested on: CAKI-1 renal
COLO 205 colon = tested on: COLO 205 colon
DU-145 prostate = tested on: DU-145 prostate
HOP-62 NSCLC = tested on: HOP-62 NSCLC
HT29 colon = tested on: HT29 colon
KM12 colon = tested on: KM12 colon
LOX IMVI melanoma = tested on: LOX IMVI melanoma
M14 melanoma = tested on: M14 melanoma
NCI-H226 lung = tested on: NCI-H226 lung
OVCAR-8 ovarian = tested on: OVCAR-8 ovarian
SF-295 CNS = tested on: SF-295 CNS
SK-MEL-5 melanoma = tested on: SK-MEL-5 melanoma
SR leukemia = tested on: SR leukemia

Compound | TGI (BT-549 breast) [µM] | TGI (CAKI-1 renal) [µM] | TGI (COLO 205 colon) [µM] | TGI (DU-145 prostate) [µM] | TGI (HOP-62 NSCLC) | TGI (HT29 colon) [µM] | TGI (KM12 colon) [µM] | TGI (LOX IMVI melanoma) [µM] | TGI (M14 melanoma) [µM] | TGI (NCI-H226 lung) [µM] | TGI (OVCAR-8 ovarian) [µM] | TGI (SF-295 CNS) | TGI (SK-MEL-5 melanoma) [µM] | TGI (SR leukemia) [µM] | GI50 (HOP-62 NSCLC) | GI50 (SF-295 CNS) | GI50 (COLO 205 colon) [µM] | GI50 (LOX IMVI melanoma) [µM]
CN(/N=C/c1ccccc1C(=O)O)C1=NCCCCN1 | > 100 | > 100 | > 100 | > 100 | > 100 µM | > 100 | > 100 | > 100 | > 100 | > 100 | > 100 | > 100 µM | > 100 | > 100 |  |  |  | 
COc1ncc(C#CC(=O)c2ccccc2)c(OC)n1 | 5.33 | 7.3 | 5.08 | 19.7 | 42 µM | 5.07 | 22.9 | 3 | 10.5 | 5.46 | 8.72 | 36 µM | 6.68 | 4.68 |  |  |  | 
CN(C(=O)c1ccc(Cl)cc1)C(=S)N1CCN(c2ccccc2)CC1 | > 100 |  | > 100 | > 100 |  | > 100 | > 100 | > 100 | > 100 | > 100 | > 100 | > 100 µM | > 100 | > 100 |  |  |  | 
COc1cc(C2SCC(=O)N2NC(=O)c2ccc(NC(C)=O)cc2OC)ccc1O (stereo not drawn) | > 100 | > 100 | > 100 | > 100 | 36.7 µM | > 100 |  | > 100 | > 100 |  | 62.9 | 47 µM |  | > 100 |  |  |  | 
Fc1cc2nc3n(c2cc1F)C(c1c(Cl)cccc1Cl)SC3 (stereo not drawn) | 40.3 | 27.1 | 36.3 | 32.2 | 29.6 µM | 29.8 | 26.2 | 31.7 | 29 | 45.7 | 29.5 | 26.2 µM | 20.4 | 48.5 |  |  |  | 
O=C1CN(c2ccccc2)C(=O)CN1CCN1CC(=O)N(c2ccccc2)CC1=O | > 100 | > 100 | > 100 | > 100 | > 100 µM | > 100 | > 100 |  | > 100 |  | > 100 | > 100 µM | > 100 | > 100 |  |  |  | 
COc1ccc(-c2nc(SC)n(C3OC(COC(C)=O)C(OC(C)=O)C(OC(C)=O)C3OC(C)=O)c(=O)c2C#N)cc1 (stereo not drawn) | > 100 | > 100 | > 100 | > 100 | 52.7 µM and > 100 µM | > 100 | > 100 | > 100 | > 100 | > 100 | > 100 | 65.6 µM and > 100 µM | > 100 | > 100 | 24.4 µM and > 100 µM | 24.2 µM and > 100 µM |  | 
CCNC(=O)CNC(=O)C(Cc1ccc([N+](=O)[O-])cc1)NC(=O)OC(C)(C)C (stereo not drawn) (Boc-[ξPhe(4-NO2)]-Gly-NHEt) | > 100 | > 100 | > 100 | > 100 | > 100 µM | > 100 | > 100 | > 100 | > 100 | > 100 | > 100 | > 100 µM | > 100 | > 100 |  |  |  | 
COC(=O)[C@]1(Cc2ccc3ccccc3c2)CCCCCCN1C(=O)c1ccccc1 | > 54 |  | 24.5 | > 68.1 | > 46.5 µM | > 45.2 | > 49 | 30.3 | > 52.7 | > 52.8 | > 48.5 | > 44.5 µM | > 100 | > 100 |  |  |  | 
FC(F)(F)C1(c2ccccc2)SCc2nc3ccccc3n21 (stereo not drawn) | > 100 | > 100 | > 100 | > 100 | > 100 µM | > 100 | > 100 | > 100 | > 100 | > 100 | > 100 | > 100 µM | > 100 | > 100 |  |  |  | 
COC(=O)C1SC[C@H]2C(=O)N(c3ccccc3)C(=O)N12 (stereo partly drawn) | > 100 | > 100 | > 100 | > 100 | > 100 µM | > 100 | > 100 | > 100 | > 100 | > 100 | > 100 | > 100 µM | > 100 | > 100 |  |  |  | 
N#Cc1c2ccc([N+](=O)[O-])cc2c(=O)n2c1sc1ccccc12 | > 100 | > 100 | 37.7 | > 100 |  | > 100 | > 100 | > 100 |  | 47.5 | > 100 |  | > 100 | 24.4 |  |  |  | 
CCOC(=O)/C=C(/C(=O)OCC)n1ccc(=O)n(CC(=O)OCC)c1=O | 4.61 | 0.32 | 1.63 | 17.1 | 34.7 µM | 3.24 | 7.95 | 1.81 | 2.73 | 5.31 | 6.41 | 28.1 µM | 6.21 | 3.61 |  |  | 0.361 | 0.422
CN(C)c1c(C2CC(O)C(CO)O2)c(=O)c1=O (stereo not drawn) | > 100 |  |  | > 100 | > 100 µM | > 100 | > 100 | > 100 | > 100 | > 100 | > 100 | > 100 µM |  | > 100 |  |  |  | 
NC(Cc1ccc(O)cn1)C(=O)O (stereo not drawn) | > 100 | > 100 | > 100 | > 100 | > 100 µM | > 100 | > 100 | > 100 |  | > 100 | > 100 | > 100 µM | > 100 | > 100 |  |  |  | 
O=C(NNC(=O)c1c(Cl)c(Cl)c(Cl)c(Cl)c1-c1nc2ccccc2[nH]1)c1ccc(Cl)cc1 | > 100 | > 100 | > 100 | > 100 | > 100 µM | > 100 | > 100 | > 100 | > 100 | > 100 | > 100 | > 100 µM | > 100 | > 100 |  |  |  | 
